From publication PMC11088877, “AMP-activated protein kinase can be allosterically activated by ADP but AMP remains the key activating ligand” (Biochemical Journal, 2024)
Where two headings read alike, the source gives them in different places.

Key:
[1] = target: bacterially expressed AMPK heterotrimers (γ subunit CBS sites); conditions: cited from earlier work
[2] = target: T1, human α2β2γ1 complex, CBS4 mutant (I312G) (Homo sapiens, UniProt P54619+P54646, I312G); experiment: AMPK inactivation and Thr172 dephosphorylation by PPM1A, CBS4 mutant; format: biochemical; conditions: 300 µM nucleotide, absence of ATP
T1 construct: made in house; host or cells: Escherichia coli
T1 sequence (P54619 whole entry I312G): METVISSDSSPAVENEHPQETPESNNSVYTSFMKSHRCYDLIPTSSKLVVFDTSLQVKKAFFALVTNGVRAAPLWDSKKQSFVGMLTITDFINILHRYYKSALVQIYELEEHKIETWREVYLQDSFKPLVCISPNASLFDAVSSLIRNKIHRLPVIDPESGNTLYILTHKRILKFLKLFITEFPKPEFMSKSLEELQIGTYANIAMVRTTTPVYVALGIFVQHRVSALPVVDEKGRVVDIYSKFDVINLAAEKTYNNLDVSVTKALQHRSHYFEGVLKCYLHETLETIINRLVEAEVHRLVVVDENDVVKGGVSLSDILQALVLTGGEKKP
T1 sequence (P54646 whole entry): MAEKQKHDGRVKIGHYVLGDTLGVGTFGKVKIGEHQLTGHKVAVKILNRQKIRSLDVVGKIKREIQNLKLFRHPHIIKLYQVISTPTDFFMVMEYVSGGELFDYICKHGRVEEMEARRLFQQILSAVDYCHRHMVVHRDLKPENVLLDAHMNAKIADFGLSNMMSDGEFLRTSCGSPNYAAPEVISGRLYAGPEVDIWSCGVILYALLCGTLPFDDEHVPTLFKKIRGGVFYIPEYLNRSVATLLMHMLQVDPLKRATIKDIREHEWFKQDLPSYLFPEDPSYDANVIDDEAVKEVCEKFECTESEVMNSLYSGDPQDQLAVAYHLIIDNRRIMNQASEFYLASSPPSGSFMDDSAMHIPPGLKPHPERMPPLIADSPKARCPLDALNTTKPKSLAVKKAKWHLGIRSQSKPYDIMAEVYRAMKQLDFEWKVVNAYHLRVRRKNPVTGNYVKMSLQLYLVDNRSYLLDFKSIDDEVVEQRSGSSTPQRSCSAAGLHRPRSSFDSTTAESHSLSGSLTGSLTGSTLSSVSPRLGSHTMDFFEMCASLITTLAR
T1 sequence (O43741 whole entry partner): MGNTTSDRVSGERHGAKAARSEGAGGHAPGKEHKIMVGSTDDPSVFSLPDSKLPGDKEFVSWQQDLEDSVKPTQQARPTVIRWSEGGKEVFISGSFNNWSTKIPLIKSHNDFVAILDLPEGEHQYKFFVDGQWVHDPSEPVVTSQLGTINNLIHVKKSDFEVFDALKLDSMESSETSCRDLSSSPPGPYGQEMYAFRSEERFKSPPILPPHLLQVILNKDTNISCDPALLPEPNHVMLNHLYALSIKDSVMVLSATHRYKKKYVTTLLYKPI
Method: (§1) The relative roles of the three CBS sites in the other two mechanisms of activation of AMPK by AMP or ADP, i.e. promotion of Thr172 phosphorylation by LKB1, and protection against Thr172 dephosphorylation by protein phosphatases, have not been examined previously. As expected, incubation of the α2β2γ1 AMPK complex with a fixed, limiting amount of purified LKB1:STRADα:MO25α complex in the presence of 200 µM Mg.ATP^2− caused a large degree of activation (Figure 5A) and phosphorylation (Figure 5B) of AMPK (unphosphorylated α2β2γ1 complex), which were stimulated more than 2-fold by 300 µM AMP and 1.6-fold by 300 µM ADP.
Figure 6. Effects of AMP or ADP on AMPK inactivation and Thr172 dephosphorylation by PP2Cα (PPM1A). Human α2β2γ1 complexes (WT, or with L129D/V130D, V276G/L277G or I312G mutations affecting CBS1, CBS3 or CBS4 respectively), all phosphorylated on Thr172, were incubated with a fixed concentration of PP2Cα (PPM1A) in the presence or absence of AMP or ADP (both 300 µM) as described in the Materials and methods section. After the incubation, aliquots were withdrawn for (A) AMPK assay or (B) Western blots. […] For (B), due to a limit on the number of lanes that could be run on one gel, single replicates from the triplicate assays were analysed. […]

[3] = target: T2, human α2β2γ1 complex, CBS3 mutant (V276G/L277G) (Homo sapiens, UniProt P54619+P54646, L277G/V276G); experiment: AMPK activation and Thr172 phosphorylation by the LKB1 complex, CBS3 mutant; format: biochemical; conditions: 300 µM nucleotide, 200 µM ATP
T2 construct: made in house; host or cells: Escherichia coli
T2 sequence (P54619 whole entry V276G/L277G): as the sequence (P54619 whole entry I312G) above, with V276G, L277G, G312I counted along it
T2 sequence (P54646 whole entry): as the sequence (P54646 whole entry) above
T2 sequence (O43741 whole entry partner): as the sequence (O43741 whole entry partner) above
Method: as §1
Figure 5. Effects of AMP or ADP on AMPK activation and Thr172 phosphorylation by the LKB1:STRADα:MO25α complex. Unphosphorylated human α2β2γ1 complexes (WT, or with L129D/V130D, V276G/L277G or I312G mutations affecting CBS1, CBS3 or CBS4 respectively) were incubated with ATP and a fixed concentration of the LKB1:STRADα:MO25α complex in the presence or absence of AMP or ADP (both 300 µM), as described in the Materials and methods section. After the incubation aliquots were withdrawn for (A) AMPK assay or (B) Western blots. […] For (B), due to a limit on the number of lanes that could be run on one gel, single replicates from the triplicate assays were analysed. […]

[4] = in the presence of Mg2+ and staurosporine, read-out: estimated Kd at the CBS3 site

| Structure (SMILES) | Kd [1, 4] | Kd ([1]; various bacterially expressed heterotrimers, read-out: Kd, AMP-binding site of high affinity) | Kd ([1]; various bacterially expressed heterotrimers, read-out: Kd, AMP-binding site of low affinity) | protective effect of nucleotide against PPM1A in the mutant [2] | effect of nucleotide on activation/phosphorylation by LKB1 in the mutant [3] |
| --- | --- | --- | --- | --- | --- |
| Nc1ncnc2c1ncn2[C@@H]1O[C@H](COP(=O)(O)O)[C@@H](O)[C@H]1O [AMP] | 1 to 2 µM | 2 to 4 µM | 40 to 400 µM | almost completely abolished | abolished |
| Nc1ncnc2c1ncn2[C@@H]1O[C@H](COP(=O)(O)OP(=O)(O)O)[C@@H](O)[C@H]1O [ADP] | 12 to 24 µM |  |  | almost completely abolished | abolished |
